Calls of active or inactive are those of the source. The calls are words filed in the database; no cut-off is given here.
Experiments:
[1] = target: r(CUG) repeat expansion; experiment: Inhibition of d(CTG.CAG)90 transcription (unknown origin) assessed as inhibition of r(CUG)90 formation incubated for 3.5 hrs measured after 1.5 hrs in presence of T7 RNA polymerase by SDS-PAGE analysis; format: nucleic-acid assay, Homo sapiens
[2] = system: r(CUG) repeat expansion; experiment: Inhibition of d(CTG.CAG)90 transcription (unknown origin) assessed as inhibition of r(CUG)90 formation at 10 uM incubated for 3.5 hrs measured after 1.5 hrs in presence of T7 RNA polymerase by SDS-PAGE analysis relative to control; format: nucleic-acid assay; details: Homo sapiens, time 5.0 hrs
[3] = system: r(CUG) repeat expansion; experiment: Inhibition of d(CTG.CAG)90 transcription (unknown origin) assessed as inhibition of r(CUG)90 formation at 60 uM incubated for 3.5 hrs measured after 1.5 hrs in presence of T7 RNA polymerase by SDS-PAGE analysis; format: nucleic-acid assay; details: Homo sapiens, time 5.0 hrs

Row | SMILES | IC50 [1] [µM] | inhibition [2] [%] | inhibition [3]
1 | N=C(NCc1ccc(N)cc1)c1ccc(C(=N)NCc2ccc(/N=C/c3ccc(/C=N/CCCCNc4nc(N)nc(NCCCCN)n4)cc3)cc2)cc1 | > 60 | 21.3 | 
2 | COc1ccc2nc3cc(Cl)ccc3c(NC/C=N/CCCCNC(=O)c3cccc4c(NCCCCNc5nc(N)nc(N)n5)c5ccccc5nc34)c2c1 | 36.2 | 23.2 | 
3 | N=C(NCCCCNc1nc(N)nc(NCc2ccc(/C=N/CCCCn3cnc4c(N)ncnc43)cc2)n1)c1ccc(C(=N)NCCCCNc2nc(N)nc(NCc3ccc(/C=N/c4ccc(CNC(=N)c5ccc(C(=N)NCc6ccc(N)cc6)cc5)cc4)cc3)n2)cc1 | 34.2 | 13.9 | 
4 | N=C(NCCCCNc1nc(N)nc(NCc2ccc(/C=N/c3ccc(CNc4nc(N)nc(NCc5ccc(N)cc5)n4)cc3)cc2)n1)c1ccc(C(=N)NCCCCNc2nc(N)nc(NCc3ccc(CO)cc3)n2)cc1 | 25.9 | 34.8 | Active
5 | COc1ccc2nc3cc(Cl)ccc3c(NC/C=N/CCCCNc3nc(N)nc(NCCCC/N=C/c4ccc(CNc5nc(N)nc(N)n5)cc4)n3)c2c1 | 44 | 19.9 | 

Source: ChEMBL document CHEMBL5236571, “Dynamic Covalent Template-Guided Screen for Nucleic Acid-Targeting Agents” (J Med Chem, 2022)
